Data on three compounds can be found in patent US20240100025A1, “Materials and Methods for Treating Viral and Other Medical Conditions” (Biotronik AG, priority 2020, published 2024).

The conditions of data set [1]: Novartis everolimus study, rats; cited from earlier work.
The conditions of data set [2]: oral; cited from earlier work.
The next data set concerns Hantavirus. To be noted: 0.05 μM, lowest concentration studied; cited from earlier work.

In the case of `CO[C@H]1C[C@@H]2CC[C@@H](C)[C@@](O)(O2)C(=O)C(=O)N2CCCC[C@H]2C(=O)O[C@H]([C@H](C)C[C@@H]2CC[C@@H](OCCO)[C@H](OC)C2)CC(=O)[C@H](C)/C=C(\C)[C@@H](O)[C@@H](OC)C(=O)[C@H](C)C[C@H](C)/C=C/C=C/C=C/1C` [everolimus], the “tissue distribution, highest drug concentrations” value in data set [1] is “highest drug concentrations were in the gastrointestinal tract and liver”.

Broadly, the bioavailability is dose-corrected exposure relative to a reference, in per cent. Usually fraction unbound stands for free concentration divided by total concentration. For `CO[C@H]1C[C@@H]2CC[C@@H](C)[C@@](O)(O2)C(=O)C(=O)N2CCCC[C@H]2C(=O)O[C@H]([C@H](C)C[C@@H]2CC[C@@H](O)[C@H](OC)C2)CC(=O)[C@H](C)/C=C(\C)[C@@H](O)[C@@H](OC)C(=O)[C@H](C)C[C@H](C)/C=C/C=C/C=C/1C` [sirolimus, Rapamycin], in data set [2], the bioavailability is approximately 14%. Moreover, the fraction unbound in the data set “Protein binding” was 0.049.

Consider `CO[C@H]1C[C@@H]2CC[C@@H](C)[C@@](O)(O2)C(=O)C(=O)N2CCCC[C@H]2C(=O)O[C@H]([C@H](C)C[C@@H]2CC[C@@H](OC(=O)C(C)(CO)CO)[C@H](OC)C2)CC(=O)[C@H](C)/C=C(\C)[C@@H](O)[C@@H](OC)C(=O)[C@H](C)C[C@H](C)/C=C/C=C/C=C/1C` [temsirolimus], for which the “reduction in virus titers” value with Hantavirus is 50%.
